Reference: US6288091A, “Antiherpes virus compounds and methods for their preparation and use” (Boehringer Ingelheim Ltd., priority 1999, dated 2001)
Where two headings read alike, the source gives them in different places.

Assays:
[1] = system: HSV-1 strain F or KOS; assay: Inhibition of herpes simplex virus (HSV-1) replication in cell culture (BHK-21 cells, glycoprotein C ELISA); assay type: cell-based
How it was run: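 BHK-21 clone 13 cells infected with HSV-1 F or KOS at MOI 0.05 PFU/cell for 1 h at 37°, washed, then treated with compound in α-MEM/2% FBS for 24 h. Late glycoprotein C quantified by ELISA (mAb C11, HRP/OPD, 450 nm); EC50 from % inhibition.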

[2] = target: T1, HSV-1 helicase-primase (Human herpesvirus 1, UniProt P10189+P10236); assay: HSV-1 DNA-dependent ATPase assay (inhibition of HSV-1 helicase-primase); assay type: biochemical
T1 construct: made in house; host or cells: Sf21 insect cells triply infected with recombinant baculoviruses (UL5, UL8, UL52)
T1 sequence (P10192 whole entry): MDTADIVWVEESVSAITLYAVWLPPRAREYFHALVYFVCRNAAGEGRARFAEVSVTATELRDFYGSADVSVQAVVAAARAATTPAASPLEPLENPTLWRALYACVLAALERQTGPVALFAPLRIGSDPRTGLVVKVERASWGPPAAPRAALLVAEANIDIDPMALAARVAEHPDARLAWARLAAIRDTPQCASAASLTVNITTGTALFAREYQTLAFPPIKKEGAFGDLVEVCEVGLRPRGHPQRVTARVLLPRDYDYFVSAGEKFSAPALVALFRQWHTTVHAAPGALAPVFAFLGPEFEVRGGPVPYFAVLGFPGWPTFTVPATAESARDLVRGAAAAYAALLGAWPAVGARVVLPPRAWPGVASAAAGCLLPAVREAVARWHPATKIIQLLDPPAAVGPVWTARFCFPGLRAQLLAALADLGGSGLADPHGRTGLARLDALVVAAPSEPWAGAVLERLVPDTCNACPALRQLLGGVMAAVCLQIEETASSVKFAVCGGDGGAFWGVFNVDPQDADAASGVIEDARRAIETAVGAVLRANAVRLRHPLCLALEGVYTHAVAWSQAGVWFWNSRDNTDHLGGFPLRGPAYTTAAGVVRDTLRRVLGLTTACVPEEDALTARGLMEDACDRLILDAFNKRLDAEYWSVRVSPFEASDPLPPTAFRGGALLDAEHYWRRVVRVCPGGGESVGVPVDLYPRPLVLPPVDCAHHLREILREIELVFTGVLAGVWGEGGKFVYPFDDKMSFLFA
T1 sequence (P10236 whole entry): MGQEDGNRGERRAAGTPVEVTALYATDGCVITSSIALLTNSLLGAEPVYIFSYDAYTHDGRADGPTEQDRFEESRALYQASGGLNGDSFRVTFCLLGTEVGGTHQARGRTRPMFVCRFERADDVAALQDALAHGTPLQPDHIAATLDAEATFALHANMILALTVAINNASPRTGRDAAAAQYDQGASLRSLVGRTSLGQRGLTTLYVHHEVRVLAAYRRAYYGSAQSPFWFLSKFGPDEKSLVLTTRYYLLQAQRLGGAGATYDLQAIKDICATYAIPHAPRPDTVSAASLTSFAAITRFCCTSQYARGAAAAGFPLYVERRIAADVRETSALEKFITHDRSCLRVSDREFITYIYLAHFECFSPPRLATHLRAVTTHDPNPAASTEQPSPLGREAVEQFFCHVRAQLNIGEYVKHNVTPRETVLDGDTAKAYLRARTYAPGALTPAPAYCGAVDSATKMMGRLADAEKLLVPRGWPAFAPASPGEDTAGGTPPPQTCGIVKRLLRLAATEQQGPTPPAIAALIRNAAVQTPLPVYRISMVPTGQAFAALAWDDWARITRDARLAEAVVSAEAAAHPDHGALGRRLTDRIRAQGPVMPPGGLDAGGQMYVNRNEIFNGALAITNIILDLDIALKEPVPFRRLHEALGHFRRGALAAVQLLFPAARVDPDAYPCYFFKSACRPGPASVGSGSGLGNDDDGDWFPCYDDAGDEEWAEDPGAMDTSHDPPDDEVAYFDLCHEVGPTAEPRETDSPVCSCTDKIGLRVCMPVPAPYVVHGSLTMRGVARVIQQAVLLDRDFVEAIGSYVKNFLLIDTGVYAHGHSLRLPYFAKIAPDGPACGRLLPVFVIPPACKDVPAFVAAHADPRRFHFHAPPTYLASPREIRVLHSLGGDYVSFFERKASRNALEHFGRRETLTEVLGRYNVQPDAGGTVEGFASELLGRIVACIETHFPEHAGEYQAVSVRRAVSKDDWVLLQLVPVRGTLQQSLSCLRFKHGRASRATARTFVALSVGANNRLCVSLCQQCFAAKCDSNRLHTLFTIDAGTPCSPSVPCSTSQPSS
T1 sequence (P10189 whole entry): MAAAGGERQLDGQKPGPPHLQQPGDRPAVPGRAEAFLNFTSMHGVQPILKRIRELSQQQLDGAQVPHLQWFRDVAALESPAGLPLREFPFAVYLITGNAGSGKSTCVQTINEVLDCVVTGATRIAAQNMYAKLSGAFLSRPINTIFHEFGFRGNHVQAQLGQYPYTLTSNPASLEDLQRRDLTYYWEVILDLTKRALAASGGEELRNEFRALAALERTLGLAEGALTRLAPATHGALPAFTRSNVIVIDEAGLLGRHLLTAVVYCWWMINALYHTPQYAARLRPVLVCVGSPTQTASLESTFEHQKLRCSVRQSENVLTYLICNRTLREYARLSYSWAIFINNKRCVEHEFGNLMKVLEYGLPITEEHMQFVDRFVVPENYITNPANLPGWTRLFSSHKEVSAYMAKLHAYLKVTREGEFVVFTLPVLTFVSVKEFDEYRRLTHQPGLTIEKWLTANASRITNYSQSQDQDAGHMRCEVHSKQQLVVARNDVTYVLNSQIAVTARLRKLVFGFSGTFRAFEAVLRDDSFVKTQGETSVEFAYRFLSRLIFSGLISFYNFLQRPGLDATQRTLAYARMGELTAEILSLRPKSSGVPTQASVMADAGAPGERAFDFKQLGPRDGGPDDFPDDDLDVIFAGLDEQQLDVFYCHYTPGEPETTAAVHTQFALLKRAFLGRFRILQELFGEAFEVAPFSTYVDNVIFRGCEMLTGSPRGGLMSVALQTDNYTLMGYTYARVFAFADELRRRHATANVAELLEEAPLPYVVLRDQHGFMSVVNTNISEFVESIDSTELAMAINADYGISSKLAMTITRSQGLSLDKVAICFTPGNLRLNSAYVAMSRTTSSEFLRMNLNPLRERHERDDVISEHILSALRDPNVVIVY
How it was run: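 Holoenzyme (UL5/UL8/UL52) expressed in baculovirus-infected Sf21 cells and purified, used at 3 μg/mL with 4 mM ATP and 25 μM primed M13 ssDNA in HEPES pH 7.5, 5.5 mM MgCl2, 3.3% DMSO. Incubated 20 min at 34°. Released phosphate read by malachite green at 650 nm, and activity taken from net absorbance with versus without inhibitor.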

[3] = system: HCMV (strain AD169); assay: Inhibition of HCMV replication, ELISA assay (Hs-68 cells); assay type: cell-based, Human Cytomegalovirus (HCMV); conditions: read-out: ELISA CMV EC50
Protocol: C) Inhibition of Human Cytomegalovirus (HCMV) Replication
The effect of compounds on the replication of HCMV has been measured by using an ELISA-based assay (ELISA) and a plaque reduction assay (PRA).
Hs-68 cells (ATCC # CRL 1635) were seeded in 96 well microtiter plates at 10,000 cells/well in 100 μL of DMEM medium (Gibco Canada Inc.) supplemented with 10% fetal bovine serum (FBS, Gibco Canada Inc.). The plates were incubated for 3 days at 37° to allow the cells to reach 80-90% confluency prior to the assay.
The medium was removed from wells by aspiration. The cells then were infected at a multiplicity of infection (MOI) of 0.01 PFU/cell with 50 μL of HCMV (strain AD169, ATCC VR-538) in DMEM medium supplemented with 5% heat inactivated FBS (assay medium). The virus was allowed to adsorb to cells for 2 h at 37°. Following viral adsorption, the medium was removed from the wells by aspiration. The cells were washed twice with 200 μL of assay medium to remove unabsorbed virus. The cells were then incubated with or without 100 μL of appropriate concentrations of test reagent in assay medium. After 8 days of incubation at 37°, the extent of viral replication was determined by an ELISA assay which detects the late structural protein p28 of HCMV.
Eight days after infection, the medium was aspirated from the wells. Non-specific binding sites were blocked by adding 200 μL of phosphate buffered saline containing 1% (w/v) bovine serum albumin (blocking buffer) to each well and incubating the plates for 30 min at room temperature. After removal of the blocking buffer by aspiration, the cells were fixed with 100 μL of cold ethanol-acetone solution (95:5) per well. The plates were placed at -20° for 30 min. The plates were washed 4 times with phosphate buffered saline containing 0.05% (v/v) polyoxyethylene sorbitan monolaurate (Tween®). Thereafter, 100 μL of mAb UL99 (Advanced Biotechnologies Inc., #13-130-100) recognizing HCMV protein p28 was added to each wells and plates were incubated for 2 h at room temperature. The plates were washed four times with 200 μL of the above-noted phosphate buffered saline/Tween-20® solution. The cells were then incubated with 100 μL of sheep anti-mouse IgGγ horseradish peroxidase conjugated for 2 h at room temperature. The plates were then washed four times with 200 μL of above-noted phosphate buffered saline/Tween-20® solution. Thereafter, 100 μL of ortho phenylenediamine dihydrochloride (OPD, Gibco Canada Inc.) solution was added to each well and the plates were agitated on a microplate shaker for 30 min in the dark. Color development was monitored at 450 nm using a microplate spectrophotometer.
The SAS program was used to calculate the % inhibition of viral replication and to generate EC50 values.
The EC50 values obtained according to this assay method for certain thiazolylphenyl derivatives of this invention are listed in the following tables under the heading ELISA CMV.

[4] = Human alphaherpesvirus 1, BHK-21, Group 1 Table 1 entries
[5] = Human betaherpesvirus 5, AD169, Hs68, Group 1 Table 1 entries
[6] = Human alphaherpesvirus 1, BHK-21, Group 1 Table 3 entries
[7] = Human betaherpesvirus 5, AD169, Hs68, Group 1 Table 3 entries
[8] = Human alphaherpesvirus 1, BHK-21, Group 1 Table 5 entries
[9] = Human betaherpesvirus 5, AD169, Hs68, Group 1 Table 5 entries

Row | SMILES | EC50 [1, 4] | IC50 ([2]; Group 1 Table 1 entries) | EC50 [3, 5] | EC50 [1, 8] | EC50 [3, 9] | further results
1 | CC(C)(C)OC(=O)N(CC(=O)Nc1ccc(-c2csc(N)n2)cc1)Cc1ccc(Cl)cc1 [Example 91] | 0.025 µM | 0.07 µM | 1.6 µM |  |  | 
2 | CNc1nc(-c2ccc(NC(=O)CN(Cc3ccccc3)C(=O)C3CCCCC3)cc2)cs1 [Example 8] |  |  |  |  |  | EC50 [1, 6]: 0.002 µM; IC50 ([2]; Group 1 Table 3 entries): 0.05 µM; EC50 [3, 7]: 9 µM
3 | CC(C)CN(CC(=O)Nc1ccc(-c2csc(N)n2)cc1)C(=O)OCc1ccccc1 [Example 110] | 1.6 µM | 3.2 µM | > 40 µM |  |  | 
4 | CCCC(CCC)N(CC(=O)Nc1ccc(-c2csc(N)n2)cc1)C(=O)OCc1ccccc1 [Example 141] | 3.5 µM | 4 µM | > 121 µM |  |  | 
5 | Nc1nc(-c2ccc(NC(=O)CN(Cc3ccccc3)S(=O)(=O)NCc3ccccc3)cc2)cs1 [Example 143] | 1 µM | 0.8 µM | > 64 µM |  |  | 
6 | C[C@@H](NCc1ccccc1)C(=O)Nc1ccc(-c2csc(N)n2)cc1 [Example 13] |  |  |  | 2 µM | 14 µM | IC50 ([2]; Group 1 Table 5 entries): 2 µM
7 | C[C@H](C(=O)Nc1ccc(-c2csc(N)n2)cc1)N(Cc1ccccc1)C(=O)OC(C)(C)C [Example 17] |  |  |  | 0.055 µM | 7.6 µM | IC50 ([2]; Group 1 Table 5 entries): 0.11 µM
8 | C[C@@H](C(=O)Nc1ccc(-c2csc(N)n2)cc1)N(Cc1ccccc1)C(=O)OC(C)(C)C [Example 16] |  |  |  | 0.079 µM | 2.8 µM | IC50 ([2]; Group 1 Table 5 entries): 0.46 µM
9 | CN(C)c1cccc2c(S(=O)(=O)N(CC(=O)Nc3ccc(-c4csc(N)n4)cc3)Cc3ccccc3)cccc12 [Example 98] | 2.1 µM | 0.5 µM | > 2 µM |  |  | 
10 | CC(C)(C)OC(=O)N(CCc1ccccn1)CC(=O)Nc1ccc(-c2csc(N)n2)cc1 [Example 101] | 0.74 µM | 2.2 µM | 1.9 µM |  |  | 
11 | Nc1nc(-c2ccc(NC(=O)CNCCc3ccccc3)cc2)cs1 [Example 2] | 6 µM | 4.7 µM | 3.1 µM |  |  | 
12 | C[C@H](C(=O)Nc1ccc(-c2csc(N)n2)cc1)N(Cc1ccccc1)C(=O)C1CCCCC1 [Example 15] |  |  |  | 0.006 µM | 3.2 µM | IC50 ([2]; Group 1 Table 5 entries): 0.041 µM
13 | Cc1cccc(C)c1C(=O)N(CC(=O)Nc1ccc(-c2csc(N)n2)cc1)Cc1ccccc1 [Example 25] | 0.011 µM | 0.047 µM | 4.4 µM |  |  | 
14 | CC(C)(C)CN(CC(=O)Nc1ccc(-c2csc(N)n2)cc1)C(=O)OC(C)(C)C [Example 142] | 2.4 µM | 6.3 µM | 4 µM |  |  | 
15 | CC(=O)Nc1nc(-c2ccc(NC(=O)CN(Cc3ccccc3)C(=O)c3ccncc3)cc2)cs1 [Example 19] |  |  |  |  |  | EC50 [1, 6]: 9 µM; IC50 ([2]; Group 1 Table 3 entries): > 50 µM; EC50 [3, 7]: 28 µM
16 | Nc1nc(-c2ccc(NC(=O)NN3CCCCC3)cc2)cs1 [Example 27] |  |  |  |  |  | EC50 ([1]; Human alphaherpesvirus 1, BHK-21, Group 2 Table 1 entries): 15.7 µM; IC50 ([2]; Group 2 Table 1 entries): 50 µM; EC50 ([3]; Human betaherpesvirus 5, AD169, Hs68, Group 2 Table 1 entries): 15.4 µM
17 | CN(C(=O)C1CCCCC1)[C@@H](Cc1ccccc1)C(=O)Nc1ccc(-c2csc(N)n2)cc1 [Example 5] |  |  |  | 0.15 µM | 9.5 µM | IC50 ([2]; Group 1 Table 5 entries): 0.22 µM
18 | CN1CCC(C(=O)N(CC(=O)Nc2ccc(-c3csc(N)n3)cc2)Cc2ccccc2)CC1 [Example 123] |  | > 50 µM | 41 µM |  |  | 
19 | C[C@@H](c1ccccc1)N(C)CCC(=O)Nc1ccc(-c2csc(N)n2)cc1 [Example 28] |  |  |  |  |  | EC50 ([1]; Human alphaherpesvirus 1, BHK-21, Group 1 Table 2 entries): 2 µM; EC50 ([3]; Human betaherpesvirus 5, AD169, Hs68, Group 1 Table 2 entries): 18 µM
20 | Nc1nc(-c2ccc(NC(=O)[C@@H](Cc3ccccc3)NC(=O)C3CCCCC3)cc2)cs1 [Example 2] |  |  |  | 0.17 µM | 52 µM | 
